The record followed here is paper PMC9554468, “Assessing potency and binding kinetics of soluble adenylyl cyclase (sAC) inhibitors to maximize therapeutic potential” (Frontiers in Physiology, 2022).

Values joined by “and” are separate entries in the source; they are usually repeats but may differ in a detail not shown here. Equal values may be shown once.

The test deals with T1, sAC in 4-4 cells (HEK293 cells that stably overexpress sACt) (Rattus norvegicus, UniProt Q9Z286).
T1 construct: HEK293 cells that stably overexpress sACt; expressed in transfected cells
T1 sequence (Q9Z286 1-469 limits assumed): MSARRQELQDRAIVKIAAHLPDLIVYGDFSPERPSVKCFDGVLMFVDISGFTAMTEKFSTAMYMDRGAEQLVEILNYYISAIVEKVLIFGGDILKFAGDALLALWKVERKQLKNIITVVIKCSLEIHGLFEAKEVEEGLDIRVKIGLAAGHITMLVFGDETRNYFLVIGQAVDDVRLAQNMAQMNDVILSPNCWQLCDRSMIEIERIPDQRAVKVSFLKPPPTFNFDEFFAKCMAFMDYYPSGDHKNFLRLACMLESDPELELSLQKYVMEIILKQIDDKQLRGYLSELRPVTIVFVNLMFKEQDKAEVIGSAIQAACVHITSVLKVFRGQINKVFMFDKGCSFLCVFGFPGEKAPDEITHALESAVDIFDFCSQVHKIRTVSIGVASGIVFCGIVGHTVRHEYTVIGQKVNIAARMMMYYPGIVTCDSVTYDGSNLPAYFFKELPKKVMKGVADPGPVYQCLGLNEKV
The experiment in a line: cellular adenylyl cyclase activity assay (cAMP accumulation) in sAC overexpressing 4-4 cells. Particulars: 10 min preincubation, 500 μM IBMX 5 min, 37°C. The class given is cell-based, human. The method, then: For the assay, 1 × 10^5 4-4 cells were seeded in each well of a 24-well plate and incubated for 24 h in DMEM+10% FBS media at 37°C/5% CO2. One hour before the assay the media was aspirated and replaced with 300 μL fresh media. Cells were preincubated with sAC inhibitor at the indicated concentrations or vehicle (0.7% DMSO) for 10 min at 37°C. Intracellular cAMP accumulation was initiated by addition of 500 μM IBMX (Sigma-Aldrich), and cAMP was allowed to accumulate for 5-min. Intracellular cAMP was quantitated using the Direct cAMP Elisa kit (Enzo Life Sciences) following manufacturer’s instructions. GraphPad Prism (www.graphpad.com, version 9.3.1) was used for curve fitting of the concentration-response data and determination of IC50 values.
In addition to how tightly an inhibitor binds its target, efficacy against an intracellular enzyme target is also determined by factors that are present only in the context of cells, such as membrane permeability, non-specific protein binding and compound stability in media and inside cells.
Turning to `COC(=O)[C@@H]1COCCN1CCOc1ccccc1Cc1cn(C(F)F)nc1-c1cc(Cl)nc(N)n1` [TDI-11893], the IC50 (usually the concentration needed to halve the response being measured) is 0.0194 µM and 0.019 µM. In the case of `COC(=O)[C@H]1COCCN1CCOc1ccccc1Cc1cn(C(F)F)nc1-c1cc(Cl)nc(N)n1` [TDI-11891], the IC50 turned out to be 0.0023 µM. Under `Cn1cc(Cc2ccccc2OCCN2CCOCC2)c(-c2cc(Cl)nc(N)n2)n1` [TDI-11155] stands 0.0157 µM and 0.016 µM.
